The values below come from patent publication US10196357B2, “Biaryl compositions and methods for modulating a kinase cascade” (Athenex, Inc., priority 2007, dated 2019).

One experiment addresses CHK1(h) (Homo sapiens, UniProt O14757). Kind of experiment: isolated kinase activity, CHK1. Type of experiment: biochemical. The settings on record: compound @ 10 μM. The source says: (§1) Table 8 illustrates percent activity of isolated kinases in the presence of the AstraZeneca ATP-competitive inhibitor (KX2-328, AZ-28) or KX2-391 relative to control (untreated) isolated kinases.

In a further experiment the target is EGFR(h) (Homo sapiens, UniProt P00533). As to the kind of experiment: isolated kinase activity, EGFR. The format is biochemical. The settings on record: compound @ 10 μM.
EGFR(h), sequence (P00533 25-1210): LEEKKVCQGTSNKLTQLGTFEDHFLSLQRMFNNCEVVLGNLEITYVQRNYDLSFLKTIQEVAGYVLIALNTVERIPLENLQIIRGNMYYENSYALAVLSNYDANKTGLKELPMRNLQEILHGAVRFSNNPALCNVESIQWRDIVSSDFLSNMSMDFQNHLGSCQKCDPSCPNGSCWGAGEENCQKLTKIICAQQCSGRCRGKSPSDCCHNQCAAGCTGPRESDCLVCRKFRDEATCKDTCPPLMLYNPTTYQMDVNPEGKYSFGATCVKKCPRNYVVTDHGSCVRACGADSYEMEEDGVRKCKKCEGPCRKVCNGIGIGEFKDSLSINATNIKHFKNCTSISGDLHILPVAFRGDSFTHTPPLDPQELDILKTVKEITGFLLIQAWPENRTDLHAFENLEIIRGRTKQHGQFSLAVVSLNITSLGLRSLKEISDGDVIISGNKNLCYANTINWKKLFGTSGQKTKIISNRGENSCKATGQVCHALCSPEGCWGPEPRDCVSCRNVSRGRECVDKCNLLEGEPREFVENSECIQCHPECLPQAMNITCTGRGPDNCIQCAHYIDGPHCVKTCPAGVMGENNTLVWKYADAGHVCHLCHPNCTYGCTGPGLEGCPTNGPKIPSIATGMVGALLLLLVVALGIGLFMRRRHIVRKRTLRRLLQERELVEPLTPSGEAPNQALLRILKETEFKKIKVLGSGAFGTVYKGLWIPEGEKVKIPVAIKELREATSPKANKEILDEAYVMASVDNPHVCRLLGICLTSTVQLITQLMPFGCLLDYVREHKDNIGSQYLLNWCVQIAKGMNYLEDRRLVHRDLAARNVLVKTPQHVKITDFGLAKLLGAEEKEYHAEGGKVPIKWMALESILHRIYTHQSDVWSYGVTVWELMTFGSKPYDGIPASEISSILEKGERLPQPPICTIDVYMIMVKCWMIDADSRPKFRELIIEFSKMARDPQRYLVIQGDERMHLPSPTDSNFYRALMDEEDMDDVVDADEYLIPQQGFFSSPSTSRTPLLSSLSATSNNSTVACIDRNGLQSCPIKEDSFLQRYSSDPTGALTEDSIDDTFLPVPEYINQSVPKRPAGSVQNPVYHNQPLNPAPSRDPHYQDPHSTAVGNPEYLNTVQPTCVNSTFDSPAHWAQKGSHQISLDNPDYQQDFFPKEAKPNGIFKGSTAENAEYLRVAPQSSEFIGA
Description: as §1

Another experiment has as its target Pyk2(h) (Homo sapiens, UniProt Q14289). Kind of experiment: isolated kinase activity, Pyk2. The format is biochemical. The settings on record: compound @ 10 μM.
Description: as §1

Another experiment concerns the target Yes(h) (Homo sapiens, UniProt P07947). As to the kind of experiment: isolated kinase activity, Yes. Type of experiment: biochemical. The settings on record: compound @ 10 μM.
Description: as §1

The target in another experiment is ZAP-70(h) (Homo sapiens, UniProt P43403). Kind of experiment: isolated kinase activity, ZAP-70. Type of experiment: biochemical. The settings on record: compound @ 10 μM.
ZAP-70(h), sequence (P43403 whole entry): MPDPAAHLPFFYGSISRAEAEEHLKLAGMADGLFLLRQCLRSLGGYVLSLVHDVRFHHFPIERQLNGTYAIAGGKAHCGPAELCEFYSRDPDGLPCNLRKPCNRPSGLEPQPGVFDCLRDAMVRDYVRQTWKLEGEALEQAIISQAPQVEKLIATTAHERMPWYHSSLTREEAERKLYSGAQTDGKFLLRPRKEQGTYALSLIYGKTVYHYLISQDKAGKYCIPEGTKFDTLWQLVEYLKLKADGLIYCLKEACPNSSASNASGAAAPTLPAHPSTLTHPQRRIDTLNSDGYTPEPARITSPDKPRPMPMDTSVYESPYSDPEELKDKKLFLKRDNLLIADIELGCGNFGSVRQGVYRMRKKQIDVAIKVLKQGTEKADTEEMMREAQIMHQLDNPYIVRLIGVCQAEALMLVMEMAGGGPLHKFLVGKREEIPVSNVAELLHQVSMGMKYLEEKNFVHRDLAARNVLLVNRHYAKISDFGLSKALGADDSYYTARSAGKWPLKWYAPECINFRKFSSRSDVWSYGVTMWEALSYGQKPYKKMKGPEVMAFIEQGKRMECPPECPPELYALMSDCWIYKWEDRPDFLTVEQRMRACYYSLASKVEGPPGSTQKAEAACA
Description: as §1

The next experiment relates to PI3 kinase. Kind of experiment: isolated kinase activity, PI3 kinase. The settings on record: compound @ 10 μM. The format is biochemical.
Description: as §1

For another experiment, the system named is FAK Tyr 925. As to the kind of experiment: intracellular phosphorylation, FAK Tyr 925. The format is cell-based. The settings on record: whole cells. The method, then:
(§2) HT29 (colon cancer) and c-Src527F/NIH-3T3 (Src transformed) cell lines were treated with KX2-391 or with AstraZeneca's ATP competitive Src inhibitor AZ28. AZ28 serves as a positive comparator to show what a validated Src inhibitor should do in these assays. After treatment with compound, cells were lysed, subjected to PAGE and probed with a battery of antibodies. […] In addition, off-target protein phosphorylation was also investigated. Further, induction of apoptosis was evaluated via Caspase 3 cleavage. Multiple doses of each compound were tested because the trends in response to increasing drug concentration are the most reliable indicator of activity.
(§3) The same range of multiples of the GI50 for AZ28 in these two cell lines was run as a comparison.
KX2-391 and AZ28 inhibited Src transphosphorylation.

The subject of another experiment is Caspase-3 cleavage. As to the kind of experiment: induction of apoptosis via Caspase 3 cleavage. The format is cell-based. The settings on record: HT29 and c-Src527F/NIH-3T3 cells. How it is done:
as §2, §3
Cleavage of Caspase-3 is a good measure of induction of apoptosis.

The next experiment concerns PC3-MM2 (Prostate). Kind of experiment: growth inhibition, PC3-MM2. The settings on record: PC3-MM2 (Prostate) cells. Type of experiment: cell-based, Human.
Experiment [1] relates to Jurkat (Adult T cell leukemia). Kind of experiment: growth inhibition, Jurkat. The format is cell-based, Human.
The test system of experiment [2] is Ba/F3 + BCR-Abl T315I mutant. Kind of experiment: MTT growth inhibition, Ba/F3 + BCR-Abl T315I. The settings on record: 96 hrs. Type of experiment: cell-based. The source says:
Cultures of Ba/F3 cells were also transfected to express wild-type (WT) Bcr-Abl, E255K mutation of Bcr-Abl, or T315I mutation of Bcr-Abl and cultured in 96-well plates in complete media without IL-3. The Ba/F3 cell line is rendered Gleevec resistant when the mutation in the Bcr/Abl tyrosine kinase […] is present. […] All assays are in triplicate.

The next experiment deals with 769-P. Kind of experiment: renal tumor cell growth inhibition, 769-P. Type of experiment: cell-based, Human. The settings on record: renal cell adenocarcinoma. The method, then:
(§4) These GI50s were determined using standard tumor growth inhibition assays, similar to those described in detail in this Example 7.

For a further experiment, the system named is 786-O. As to the kind of experiment: renal tumor cell growth inhibition, 786-O. The settings on record: renal cell adenocarcinoma. Type of experiment: cell-based, Human. The method, then:
as §4

In another experiment the test system is H226. As to the kind of experiment: MTT growth inhibition, Dasatinib-resistant H226. Type of experiment: cell-based, human. The settings on record: H226, 8.0×10^3 cells/well, […] FBS, 78 Hr.
Another experiment deals with FAK Y397. As to the kind of experiment: FAK autophosphorylation in cells. Type of experiment: cell-based. The settings on record: c-Src527F/NIH3T3 cells. The method, then: as §2, §3
FAK Y397 is mainly a FAK autophosphorylation site and only a poor Src transphorylation site. AZ28 is […] a potent FAK inhibitor (see isolated enzyme data in Table 8). However, no inhibition of FAK autophosphorylation in c-Src527F/NIH3T3 cells is seen with KX-391.

The subject of experiment [3] is EGFR tyrosine kinase autophosphorylation. As to the kind of experiment: EGFR tyrosine kinase autophosphorylation in cells. Type of experiment: cell-based. The settings on record: tumor cells, FIG. 9, EGF Y845. The method, then: as §2, §3
This site is not a direct Src phosphorylation site.

Another experiment deals with ZAP70 Y319. Kind of experiment: whole cell phosphorylation, ZAP70. The settings on record: whole cells. The format is cell-based.
Another experiment relates to Lyn Y416. Kind of experiment: whole cell phosphorylation, Lyn. The format is cell-based. The settings on record: whole cells.

CHK1(h), sequence (O14757 whole entry): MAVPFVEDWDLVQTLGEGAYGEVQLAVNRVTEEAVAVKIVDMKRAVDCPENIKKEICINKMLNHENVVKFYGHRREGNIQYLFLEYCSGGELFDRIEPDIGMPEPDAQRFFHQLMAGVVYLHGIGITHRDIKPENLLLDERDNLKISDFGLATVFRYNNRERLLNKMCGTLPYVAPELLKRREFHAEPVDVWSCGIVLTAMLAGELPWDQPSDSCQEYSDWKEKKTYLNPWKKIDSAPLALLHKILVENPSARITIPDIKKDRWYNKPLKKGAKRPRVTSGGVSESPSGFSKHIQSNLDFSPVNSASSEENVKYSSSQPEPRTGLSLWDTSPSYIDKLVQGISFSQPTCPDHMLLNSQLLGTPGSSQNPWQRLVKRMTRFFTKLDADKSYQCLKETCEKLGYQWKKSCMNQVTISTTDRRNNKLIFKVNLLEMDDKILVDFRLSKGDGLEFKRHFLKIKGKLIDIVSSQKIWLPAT
Yes(h), sequence (P07947 whole entry): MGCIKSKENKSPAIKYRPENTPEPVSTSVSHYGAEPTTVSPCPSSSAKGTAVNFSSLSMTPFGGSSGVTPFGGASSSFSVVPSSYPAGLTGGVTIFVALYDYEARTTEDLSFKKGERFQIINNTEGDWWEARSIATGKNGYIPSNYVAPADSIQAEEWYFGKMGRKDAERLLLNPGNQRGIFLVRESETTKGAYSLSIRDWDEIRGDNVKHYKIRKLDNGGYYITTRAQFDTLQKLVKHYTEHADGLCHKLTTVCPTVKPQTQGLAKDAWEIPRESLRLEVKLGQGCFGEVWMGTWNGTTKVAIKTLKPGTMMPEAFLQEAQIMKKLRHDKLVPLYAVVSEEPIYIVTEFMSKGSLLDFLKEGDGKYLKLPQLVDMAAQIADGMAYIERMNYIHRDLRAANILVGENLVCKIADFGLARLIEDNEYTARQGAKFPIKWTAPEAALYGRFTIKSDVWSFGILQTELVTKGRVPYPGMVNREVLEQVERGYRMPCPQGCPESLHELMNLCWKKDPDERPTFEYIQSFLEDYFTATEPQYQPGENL
Pyk2(h), sequence (Q14289 whole entry): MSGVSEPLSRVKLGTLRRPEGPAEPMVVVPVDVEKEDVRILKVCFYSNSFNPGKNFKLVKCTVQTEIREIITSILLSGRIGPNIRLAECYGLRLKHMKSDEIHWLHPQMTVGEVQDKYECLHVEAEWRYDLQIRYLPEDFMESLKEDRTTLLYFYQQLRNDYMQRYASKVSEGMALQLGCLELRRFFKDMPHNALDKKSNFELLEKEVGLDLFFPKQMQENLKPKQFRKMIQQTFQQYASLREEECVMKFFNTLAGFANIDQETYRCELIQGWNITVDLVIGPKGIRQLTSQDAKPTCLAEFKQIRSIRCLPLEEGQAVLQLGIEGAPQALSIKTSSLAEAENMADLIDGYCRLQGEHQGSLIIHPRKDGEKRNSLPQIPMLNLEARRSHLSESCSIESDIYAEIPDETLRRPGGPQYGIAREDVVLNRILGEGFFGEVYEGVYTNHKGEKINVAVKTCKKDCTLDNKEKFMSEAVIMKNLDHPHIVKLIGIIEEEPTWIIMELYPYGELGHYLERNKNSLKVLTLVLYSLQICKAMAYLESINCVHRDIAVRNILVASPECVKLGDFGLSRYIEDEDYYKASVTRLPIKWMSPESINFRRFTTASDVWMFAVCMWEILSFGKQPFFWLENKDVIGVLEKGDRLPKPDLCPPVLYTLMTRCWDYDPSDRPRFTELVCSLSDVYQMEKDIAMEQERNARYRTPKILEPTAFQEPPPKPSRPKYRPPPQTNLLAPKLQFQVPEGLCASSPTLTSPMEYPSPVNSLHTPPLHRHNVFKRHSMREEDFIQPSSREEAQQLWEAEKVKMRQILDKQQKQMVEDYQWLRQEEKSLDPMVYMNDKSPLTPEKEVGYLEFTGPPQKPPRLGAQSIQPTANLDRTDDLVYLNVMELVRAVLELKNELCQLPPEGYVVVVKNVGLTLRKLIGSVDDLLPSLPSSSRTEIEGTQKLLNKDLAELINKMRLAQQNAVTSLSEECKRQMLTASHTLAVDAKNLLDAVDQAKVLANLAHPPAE
Description for H226: Cell proliferation/growth inhibition was assessed using MTT colorimetric assay.
On Day 3, 10 μL MTT (5 mg/mL) was added to each well. Cells were then incubated in the presence of MTT for 4 hours at 37° C., appropriate CO2 conditions. After this incubation period, 90 μL 10% SDS(+HCl) was added to each well to lyse cells and solubilize formazan. Cells were then incubated overnight at 37° C., appropriate CO2 conditions.
The OD570 was measured using microplate reader. Growth inhibition curves and EC50/IC50 was determined using GraphPad Prism 4 statistical software.

Take `O=C(Cc1ccc(-c2ccc(OCCN3CCOCC3)cc2)cn1)NCc1ccccc1` [KX2-391]: the “percent activity of isolated kinase relative to control” value is listed as 105% on CHK1(h); 134% on EGFR(h); 97% on Pyk2(h); 92% at Yes(h); 108% on ZAP-70(h); 100% with PI3 kinase. Also, the “phosphorylation of FAK Tyr 925 (Src transphosphorylation)” value with FAK Tyr 925 is listed as “inhibited”. The “induction of apoptosis (Caspase-3 cleavage)” value in the experiment with Caspase-3 cleavage is on record as “very effective in inducing apoptosis”.

The GI50 is the concentration at which growth is held to half of that of the control. By IC50 is commonly meant the concentration needed to halve the response being measured. Low readings indicate higher potency, high ones lower potency. As usually defined, the IC80 is the concentration at which the effect reaches the 80% level. Lower therefore signals greater potency. Broadly, the IC90 is the concentration needed for an effect of 90%. A high value points to weaker potency. As to `O=C(Cc1ccc(-c2ccc(OCCN3CCOCC3)cc2)cn1)NCc1ccccc1` [KXO1], the GI50 with PC3-MM2 (Prostate) worked out at 8.9 nM; in experiment [1], 10 nM; in experiment [2], 35 nM; with 769-P, 45 nM; with 786-O it was 378 nM. Moreover, inhibition with H226 was half-maximal at 98 nM (IC50). The IC80 in the experiment on H226 worked out at 277 nM. This compound displayed an IC90 in the experiment with H226 of 490 nM. Besides, the “FAK Y397 autophosphorylation” value with FAK Y397 was “no inhibition”. Also, the figures for the “EGFR tyrosine kinase autophosphorylation” value in [3] and in experiment [3] (listed as KX-391) were “not inhibited” and “less active”, respectively. The “phosphorylation of ZAP70 Y319” value in the experiment with ZAP70 Y319 was “not inhibited”. In addition, the “phosphorylation of Lyn Y416” value in the experiment with Lyn Y416 is “inhibited less potently”.
